From ChEMBL document CHEMBL1201862, “PubChem BioAssay data set” (2004)
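In this assay, cells in 96-well plates receive the compound at five concentrations for 48 hours. Endpoints are linearly interpolated between the surrounding concentrations. At the GI50, growth is halved.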 The source made the active and inactive calls. Cut-off read from the data, not from the text of the source: active = GI50 up to about 1.1 µM and inactive = higher.

Legend:
Experiment in all cases: DTP human tumour cell line panel, 48 h
UACC-62 = system: UACC-62
SW-620 = system: SW-620
COLO 205 = system: COLO 205
NCI-H23 = system: NCI-H23
OVCAR-3 = system: OVCAR-3
SNB-78 = system: SNB-78
HT-29 = system: HT-29
U-251 = system: U-251
KM-20L2 = system: KM-20L2
DLD-1 = system: DLD-1
786-0 = system: 786-0
HOP-92 = system: HOP-92
SNB-19 = system: SNB-19
SF-268 = system: SF-268
KM12 = system: KM12
HOP-62 = system: HOP-62
SF-539 = system: SF-539
RPMI-8226 = system: RPMI-8226
K562 = system: K562
SF-295 = system: SF-295
OVCAR-4 = system: OVCAR-4
HL-60 = system: HL-60
M19-MEL = system: M19-MEL
MOLT-4 = system: MOLT-4
NCI-H226 = system: NCI-H226
M14 = system: M14
OVCAR-8 = system: OVCAR-8
UACC-257 = system: UACC-257
A549 = system: A549
SK-MEL-28 = system: SK-MEL-28
SK-OV-3 = system: SK-OV-3
LOX IMVI = system: LOX IMVI
TK-10 = system: TK-10
SNB-75 = system: SNB-75
SR = system: SR
LXFL 529 = system: LXFL 529
ACHN = system: ACHN
OVCAR-5 = system: OVCAR-5
UO-31 = system: UO-31
HCT-116 = system: HCT-116
NCI-H522 = system: NCI-H522
NCI-H460 = system: NCI-H460
IGROV-1 = system: IGROV-1
CCRF-CEM = system: CCRF-CEM
DMS-114 = system: DMS-114
A498 = system: A498
RXF 393 = system: RXF 393
SK-MEL-2 = system: SK-MEL-2
Malme-3M = system: Malme-3M
Hs-578T = system: Hs-578T
SK-MEL-5 = system: SK-MEL-5
SN12C = system: SN12C
BT-549 = system: BT-549
MDA-N = system: MDA-N
HCT-15 = system: HCT-15
MDA-MB-435 = system: MDA-MB-435
CAKI-1 = system: CAKI-1
MCF7 = system: MCF7
EKVX = system: EKVX
NCI/ADR-RES = system: NCI/ADR-RES
T47D = system: T47D
MDA-MB-231 = system: MDA-MB-231
HCC 2998 = system: HCC 2998
DU-145 = system: DU-145
PC-3 = system: PC-3

With Sc1nnc(-c2ccccc2)n1/N=C\c1ccc(-c2ccc(Cl)cc2)o1 the GI50 (UACC-62) was > 100 µM (inactive), the GI50 (SW-620) was > 100 µM (inactive) and the GI50 (COLO 205) was > 100 µM (inactive). The GI50 (NCI-H23) was > 100 µM (inactive), the GI50 (OVCAR-3) was > 100 µM (inactive) and the GI50 (SNB-78) was > 100 µM (inactive). For the same compound, the GI50 (HT-29) was > 100 µM (inactive), the GI50 (U-251) was > 100 µM (inactive) and the GI50 (KM-20L2) was > 100 µM (inactive). For the same compound, the GI50 (DLD-1) was > 100 µM (inactive), the GI50 (786-0) was > 100 µM (inactive) and the GI50 (HOP-92) was > 100 µM (inactive). The GI50 (SNB-19) was > 100 µM (inactive), the GI50 (SF-268) was > 100 µM (inactive) and the GI50 (KM12) was > 100 µM (inactive). The GI50 (HOP-62) was > 100 µM (inactive), the GI50 (SF-539) was > 100 µM (inactive) and the GI50 (RPMI-8226) was > 100 µM (inactive). For the same compound, the GI50 (K562) was > 100 µM (inactive), the GI50 (SF-295) was > 100 µM (inactive) and the GI50 (OVCAR-4) was > 100 µM (inactive). For the same compound, the GI50 (HL-60) was > 100 µM (inactive), the GI50 (M19-MEL) was > 100 µM (inactive) and the GI50 (MOLT-4) was > 100 µM (inactive). The GI50 (NCI-H226) was > 100 µM (inactive), the GI50 (M14) was > 100 µM (inactive) and the GI50 (OVCAR-8) was > 100 µM (inactive). For the same compound, the GI50 (UACC-257) was > 100 µM (inactive), the GI50 (A549) was > 100 µM (inactive) and the GI50 (SK-MEL-28) was > 100 µM (inactive). For the same compound, the GI50 (SK-OV-3) was > 100 µM (inactive), the GI50 (LOX IMVI) was > 100 µM (inactive) and the GI50 (TK-10) was > 100 µM (inactive). For the same compound, the GI50 (SNB-75) was > 100 µM (inactive), the GI50 (SR) was > 100 µM (inactive) and the GI50 (LXFL 529) was > 100 µM (inactive). For the same compound, the GI50 (ACHN) was > 100 µM (inactive), the GI50 (OVCAR-5) was > 100 µM (inactive) and the GI50 (UO-31) was > 100 µM (inactive). For the same compound, the GI50 (HCT-116) was > 100 µM (inactive), the GI50 (NCI-H522) was > 100 µM (inactive) and the GI50 (NCI-H460) was > 100 µM (inactive). The GI50 (IGROV-1) was > 100 µM (inactive).
In the case of CCCCOP(=O)(OCCCC)/C(C#N)=C/c1ccco1, the GI50 (UACC-62) was > 100 µM (inactive), the GI50 (COLO 205) was > 100 µM (inactive) and the GI50 (NCI-H23) was > 100 µM (inactive). The GI50 (OVCAR-3) was 34.7 µM (inactive), the GI50 (SNB-78) was 43.9 µM (inactive) and the GI50 (HT-29) was > 100 µM (inactive). For the same compound, the GI50 (U-251) was > 100 µM (inactive), the GI50 (KM-20L2) was > 100 µM (inactive) and the GI50 (HOP-92) was 45.3 µM (inactive). For the same compound, the GI50 (SNB-19) was 94.6 µM (inactive), the GI50 (SF-268) was 45.2 µM (inactive) and the GI50 (KM12) was 52.6 µM (inactive). For the same compound, the GI50 (HOP-62) was > 100 µM (inactive), the GI50 (SF-539) was > 100 µM (inactive) and the GI50 (RPMI-8226) was 45.2 µM (inactive). The GI50 (SF-295) was 51.3 µM (inactive), the GI50 (OVCAR-4) was 91.6 µM (inactive) and the GI50 (HL-60) was 22.8 µM (inactive). The GI50 (M19-MEL) was > 100 µM (inactive), the GI50 (CCRF-CEM) was 12.4 µM (inactive) and the GI50 (M14) was > 100 µM (inactive). The GI50 (DMS-114) was 64.9 µM (inactive), the GI50 (UACC-257) was 40.1 µM (inactive) and the GI50 (A498) was 77.8 µM (inactive). For the same compound, the GI50 (RXF 393) was 82.8 µM (inactive), the GI50 (SK-MEL-28) was > 100 µM (inactive) and the GI50 (SK-MEL-2) was > 100 µM (inactive). For the same compound, the GI50 (SK-OV-3) was > 100 µM (inactive), the GI50 (SNB-75) was 27.2 µM (inactive) and the GI50 (LXFL 529) was > 100 µM (inactive). The GI50 (ACHN) was 95.7 µM (inactive), the GI50 (Malme-3M) was 94.2 µM (inactive) and the GI50 (OVCAR-5) was > 100 µM (inactive). The GI50 (UO-31) was 25.8 µM (inactive), the GI50 (HCT-116) was > 100 µM (inactive) and the GI50 (NCI-H460) was > 100 µM (inactive). For the same compound, the GI50 (IGROV-1) was > 100 µM (inactive).
With NC(=O)CCSC(CC(=O)c1ccc(Cl)cc1)c1ccc(Cl)cc1 (configuration not stated) the GI50 (Hs-578T) was 46.5 µM (inactive), the GI50 (UACC-62) was 16.8 µM (inactive) and the GI50 (SK-MEL-5) was 17.2 µM (inactive). The GI50 (SW-620) was 3.08 µM (inactive), the GI50 (COLO 205) was 33 µM (inactive) and the GI50 (NCI-H23) was 32.4 µM (inactive). For the same compound, the GI50 (SN12C) was 28.2 µM (inactive), the GI50 (OVCAR-3) was 19.2 µM (inactive) and the GI50 (HT-29) was 19.9 µM (inactive). For the same compound, the GI50 (U-251) was 16.2 µM (inactive), the GI50 (786-0) was 30 µM (inactive) and the GI50 (BT-549) was 36.1 µM (inactive). For the same compound, the GI50 (HOP-92) was 15 µM (inactive), the GI50 (MDA-N) was 16.7 µM (inactive) and the GI50 (HCT-15) was 10.5 µM. For the same compound, the GI50 (MDA-MB-435) was 16 µM (inactive), the GI50 (SNB-19) was 32.5 µM (inactive) and the GI50 (SF-268) was 27.8 µM (inactive). For the same compound, the GI50 (CAKI-1) was 12.4 µM (inactive), the GI50 (KM12) was 6.11 µM (inactive) and the GI50 (HOP-62) was 28.1 µM (inactive). The GI50 (SF-539) was 19.7 µM (inactive), the GI50 (RPMI-8226) was 2.21 µM (inactive) and the GI50 (MCF7) was 5.08 µM (inactive). For the same compound, the GI50 (K562) was 7.1 µM (inactive), the GI50 (SF-295) was 25.2 µM (inactive) and the GI50 (OVCAR-4) was 16.8 µM (inactive). The GI50 (HL-60) was 6.97 µM (inactive), the GI50 (CCRF-CEM) was 2.93 µM (inactive) and the GI50 (MOLT-4) was 10.4 µM (inactive). The GI50 (EKVX) was 28.2 µM (inactive), the GI50 (NCI-H226) was 36 µM (inactive) and the GI50 (M14) was 27.2 µM (inactive). The GI50 (OVCAR-8) was 16.3 µM (inactive), the GI50 (UACC-257) was 27.7 µM (inactive) and the GI50 (A549) was 29.9 µM (inactive). For the same compound, the GI50 (A498) was 22.5 µM (inactive), the GI50 (NCI/ADR-RES) was 22.8 µM (inactive) and the GI50 (RXF 393) was 17.9 µM (inactive). The GI50 (T47D) was 19.1 µM (inactive), the GI50 (SK-MEL-28) was 28.4 µM (inactive) and the GI50 (SK-MEL-2) was 24.3 µM (inactive). For the same compound, the GI50 (SK-OV-3) was 38.1 µM (inactive), the GI50 (LOX IMVI) was 12.1 µM (inactive) and the GI50 (TK-10) was 48 µM (inactive). The GI50 (SNB-75) was 40.1 µM (inactive), the GI50 (SR) was 4.06 µM (inactive) and the GI50 (MDA-MB-231) was 40.2 µM (inactive). The GI50 (ACHN) was 34.7 µM (inactive), the GI50 (Malme-3M) was 24.9 µM (inactive) and the GI50 (OVCAR-5) was 32.7 µM (inactive). The GI50 (UO-31) was 26.7 µM (inactive), the GI50 (HCT-116) was 14.7 µM (inactive) and the GI50 (HCC 2998) was 18.2 µM (inactive). The GI50 (NCI-H522) was 23.2 µM (inactive), the GI50 (DU-145) was 27.5 µM (inactive) and the GI50 (PC-3) was 34.6 µM (inactive). The GI50 (NCI-H460) was 35.9 µM (inactive) and the GI50 (IGROV-1) was 16.2 µM (inactive).
In the case of O=C1C=C[C@@]23C[C@@H](NC4=C2C2=NCCc5c[nH]c(c52)C4=O)SC3=C1 [1-DEBROMODISCORHABDIN B], the GI50 (COLO 205) was 1.55 µM (inactive), the GI50 (HT-29) was 2.22 µM (inactive) and the GI50 (KM-20L2) was 3.01 µM (inactive). The GI50 (MDA-N) was 1.73 µM (inactive), the GI50 (MDA-MB-435) was 1.63 µM (inactive) and the GI50 (SNB-19) was 16.3 µM (inactive). For the same compound, the GI50 (CAKI-1) was 17.7 µM (inactive), the GI50 (KM12) was 6.43 µM (inactive) and the GI50 (HL-60) was 1.67 µM (inactive). The GI50 (CCRF-CEM) was 2.86 µM (inactive), the GI50 (MOLT-4) was 1.99 µM (inactive) and the GI50 (NCI-H226) was 14.6 µM (inactive). For the same compound, the GI50 (SK-OV-3) was 18.7 µM (inactive), the GI50 (TK-10) was 14.6 µM (inactive) and the GI50 (Malme-3M) was 1.25 µM (inactive). For the same compound, the GI50 (UO-31) was 9.35 µM (inactive), the GI50 (HCT-116) was 1.75 µM (inactive) and the GI50 (NCI-H522) was 1.69 µM (inactive).
